Key:
[1] = Powder dissolution rate test; format: physicochemical; conditions: 50 rpm, samples equivalent to 10 mg of curcumin
Procedure: Powder dissolution experiments were conducted in pH 2.0 and pH 4.5 buffer solutions (containing 0.5% Tween 80) at a temperature of 37°C and a rotation speed of 50 rpm. The commercially available curcumin crystals and the powder of the curcumin-L-carnitine cocrystal from Example 3 were sieved through a 100-mesh screen to eliminate the effect of particle size on dissolution. Samples equivalent to 10 mg of curcumin were placed into the sample vessels of the dissolution apparatus, stirred, and samples were taken at 3, 5, 10, 15, 20, 30, 45, 60, 90, and 120 minutes. Concentrations were determined using HPLC. In the pH 2.0 buffer solution, the dissolution of the cocrystal at 3 minutes was about 7 times that of curcumin itself. In the pH 4.5 buffer solution, the dissolution of the cocrystal at 3 minutes was about 8 times that of curcumin itself.

[2] = Bioavailability test (plasma pharmacokinetics after intragastric administration); set-up: species or system Male SD rats; conditions: rat, in vivo, 200 mg/kg
Procedure: Male SD rats (weighing 200-300 g) kept under good feeding conditions were used for the experiment. A total of 12 rats were used, evenly divided into 2 groups of 6 rats each. Commercially available curcumin crystals and the cocrystal obtained in Example 3 were uniformly dispersed in soybean oil and administered intragastrically as a suspension. The dosage was 200 mg/kg based on curcumin content. Blood samples (1 mL per time point) were collected from the orbital venous plexus at 20 minutes, 40 minutes, 1 hour, 1.5 hours, 2.5 hours, 4 hours, 6 hours, and 8 hours after administration. Plasma was separated by centrifugation within 0.5 hours of blood collection at 10,000 rpm for 5 minutes. 100 µL of plasma was precisely transferred, added with 50 µL of enzyme buffer solution, incubated at 37°C for 60 min, then added with 0.45 mL of methanol (containing 0.2% acetic acid), vortexed for 10 min, centrifuged at 14000 rpm for 3 min, and the supernatant was collected for HPLC analysis. Table 4. Pharmacokinetic parameters for commercially available curcumin crystals and curcumin-L-carnitine cocrystal.

Substance: cocrystal of curcumin and L-carnitine [Curcumin-L-carnitine cocrystal]
- dissolution of the cocrystal at 3 minutes relative to curcumin itself ([1]; pH 2.0 buffer solution containing 0.5% Tween 80, 37°C): about 7 times
- dissolution of the cocrystal at 3 minutes relative to curcumin itself ([1]; pH 4.5 buffer solution containing 0.5% Tween 80, 37°C): about 8 times
- maximum plasma concentration of curcumin relative to commercially available curcumin crystals [2]: 10.7 times
- Cmax ([2]; po): 727.8 ng/mL
- Tmax ([2]; po): 20 min
- AUC0-8h ([2]; po, 8 h): 692.5 ng·h/mL

— EP4810476A1, “COCRYSTAL OF CURCUMIN AND L-CARNITINE, AND PREPARATION METHOD THEREFOR AND USE THEREOF” (Cocrystal Health Industry (Zhejiang) Co., Ltd., priority 2023, dated 2025)
